Experimental data reported in PubChem BioAssay AID248 (DTP/NCI, 2004).
Toxic doses and inconclusive results are not listed.

Tested on: L1210 leukemia ip in BDF1 mice, survival T/C
Experiment: NCI In Vivo Anticancer Drug Screen. Data for tumor model L1210 Leukemia (intraperitoneal) in B6D2F1 (BDF1) mice
Conditions: endpoint: mean survival time, higher = longer survival
Method: The antitumor activity of compounds was measured in mice bearing transplantable tumors. Survival or tumor size were measured and the results are expressed as the measurement made in the treated group (T) divided by the measurement made in the vehicle treated control group (C). The tumor model used in this assay is L1210 Leukemia (intraperitoneal) in B6D2F1 (BDF1) mice

[1] = dose: 100.0 mg/kg/injection, schedule: Q04DX002 (ip), vehicle: Klucel (hydroxypropylcellulose) (HPC)
[2] = dose: 100.0 mg/kg/injection, schedule: Q01DX001 (ip), vehicle: saline
[3] = dose: 100.0 mg/kg/injection, schedule: Q04DX003 (ip), vehicle: acetone
[4] = dose: 200.0 mg/kg/injection, schedule: Q01DX001 (ip), vehicle: saline
[5] = dose: 200.0 mg/kg/injection, schedule: Q04DX003 (ip), vehicle: acetone
[6] = dose: 400.0 mg/kg/injection, schedule: Q01DX001 (ip), vehicle: saline
[7] = dose: 100.0 mg/kg/injection, schedule: Q01DX009 (ip), vehicle: Klucel (hydroxypropylcellulose) (HPC)
[8] = dose: 200.0 mg/kg/injection, schedule: Q01DX009 (ip), vehicle: Klucel (hydroxypropylcellulose) (HPC)
[9] = dose: 400.0 mg/kg/injection, schedule: Q01DX009 (ip), vehicle: Klucel (hydroxypropylcellulose) (HPC)
[10] = dose: 100.0 mg/kg/injection, schedule: Q04DX003 (ip), vehicle: Klucel (hydroxypropylcellulose) (HPC)
[11] = dose: 200.0 mg/kg/injection, schedule: Q04DX003 (ip), vehicle: Klucel (hydroxypropylcellulose) (HPC)
[12] = dose: 400.0 mg/kg/injection, schedule: Q04DX003 (ip), vehicle: Klucel (hydroxypropylcellulose) (HPC)

With `COc1cc2c(cc1OC)N(C(C)=O)Cc1ccc(C=O)n1C2` the T/C (dose: 25.0 mg/kg/injection, schedule: Q04DX002 (ip), vehicle: Klucel (hydroxypropylcellulose) (HPC)) was 105 % of control, the T/C (dose: 50.0 mg/kg/injection, schedule: Q04DX002 (ip), vehicle: Klucel (hydroxypropylcellulose) (HPC)) was 97 % of control and the T/C [1] was 90 % of control.
`Nc1ccc2ccc(O)cc2c1` was tested, and the T/C (dose: 200.0 mg/kg/injection, schedule: Q04DX003 (ip), vehicle: saline) was 121 % of control.
In the case of `Cc1ccc(N2CCN(c3ccc(C)cc3)CC2)cc1`, the T/C (dose: 100.0 mg/kg/injection, schedule: Q04DX002 (ip), vehicle: gum acacia) is reported as 109 % of control, the T/C (dose: 200.0 mg/kg/injection, schedule: Q04DX002 (ip), vehicle: gum acacia) is reported as 95 % of control and the T/C (dose: 400.0 mg/kg/injection, schedule: Q04DX002 (ip), vehicle: gum acacia) is reported as 103 % of control.
In the case of `CCCS(=O)(=O)c1ccc(C)cc1`, the T/C [2] is reported as 98 % of control, the T/C (dose: 100.0 mg/kg/injection, schedule: Q01DX009 (ip), vehicle: saline) is reported as 94 % of control and the T/C [3] is reported as 100 % of control. For the same molecule, the T/C [4] was 98 % of control, the T/C (dose: 200.0 mg/kg/injection, schedule: Q01DX009 (ip), vehicle: saline) was 93 % of control and the T/C [5] was 102 % of control. The T/C [6] was 107 % of control, the T/C (dose: 400.0 mg/kg/injection, schedule: Q01DX009 (ip), vehicle: saline) was 93 % of control and the T/C (dose: 400.0 mg/kg/injection, schedule: Q04DX003 (ip), vehicle: acetone) was 100 % of control.
In the case of `Cc1ccc(S(=O)(=O)N(N)C(=O)c2ccccc2)cc1`, the T/C (dose: 75.0 mg/kg/injection, schedule: Q01DX001 (ip), vehicle: saline) is reported as 86 % of control.
For `CC(=O)Nc1ccc(NC(=O)C2CC2)cc1`, the T/C [7] was 95 % of control, the T/C [8] was 109 % of control and the T/C [9] was 104 % of control.
With `CNc1nc(Nc2ccc(C3=NCCN3)cc2)nc(Nc2ccc(C3=NCCN3)cc2)n1` the T/C (dose: 1.25 mg/kg/injection, schedule: Q01DX015 (ip), vehicle: water) was 96 % of control, the T/C (dose: 2.5 mg/kg/injection, schedule: Q01DX015 (ip), vehicle: water) was 96 % of control and the T/C (dose: 5.0 mg/kg/injection, schedule: Q01DX015 (ip), vehicle: water) was 105 % of control. The T/C (dose: 7.5 mg/kg/injection, schedule: Q01DX015 (ip), vehicle: water) was 152 % of control, the T/C (dose: 10.0 mg/kg/injection, schedule: Q01DX015 (ip), vehicle: water) was 102 % of control and the T/C (dose: 12.5 mg/kg/injection, schedule: Q01DX001 (ip), vehicle: water) was 105 % of control. The T/C (dose: 13.3 mg/kg/injection, schedule: Q01DX Z (ip), vehicle: saline) was 115 % of control, the T/C (dose: 15.0 mg/kg/injection, schedule: Q01DX015 (ip), vehicle: water) was 106 % of control and the T/C (dose: 20.0 mg/kg/injection, schedule: Q01DX Z (ip), vehicle: saline) was 121 % of control. The T/C (dose: 25.0 mg/kg/injection, schedule: Q01DX001 (ip), vehicle: water) was 103 % of control, the T/C (dose: 30.0 mg/kg/injection, schedule: Q01DX015 (ip), vehicle: water) was 121 % of control and the T/C (dose: 50.0 mg/kg/injection, schedule: Q01DX001 (ip), vehicle: water) was 100 % of control. For the same molecule, the T/C (dose: 60.0 mg/kg/injection, schedule: Q01DX Z (oral), vehicle: carboxymethylcellulose (CMC)) was 105 % of control, the T/C (dose: 75.0 mg/kg/injection, schedule: Q01DX001 (ip), vehicle: water) was 115 % of control and the T/C (dose: 120.0 mg/kg/injection, schedule: Q01DX Z (oral), vehicle: carboxymethylcellulose (CMC)) was 109 % of control. The T/C (dose: 240.0 mg/kg/injection, schedule: Q01DX Z (oral), vehicle: carboxymethylcellulose (CMC)) was 96 % of control and the T/C (dose: 480.0 mg/kg/injection, schedule: Q01DX Z (oral), vehicle: carboxymethylcellulose (CMC)) was 100 % of control.
For `c1nc2c(o1)CCCC2`, the T/C (dose: 50.0 mg/kg/injection, schedule: Q04DX002 (ip), vehicle: carboxymethylcellulose (CMC)) was 98 % of control, the T/C (dose: 50.0 mg/kg/injection, schedule: Q04DX002 (ip), vehicle: other) was 97 % of control and the T/C (dose: 100.0 mg/kg/injection, schedule: Q04DX002 (ip), vehicle: carboxymethylcellulose (CMC)) was 98 % of control. The T/C (dose: 100.0 mg/kg/injection, schedule: Q04DX002 (ip), vehicle: other) was 100 % of control, the T/C (dose: 200.0 mg/kg/injection, schedule: Q04DX002 (ip), vehicle: carboxymethylcellulose (CMC)) was 95 % of control and the T/C (dose: 200.0 mg/kg/injection, schedule: Q04DX002 (ip), vehicle: other) was 93 % of control.
`O=C(COc1ccccc1)NCc1cccc(Cl)c1` was tested, and the T/C (dose: 100.0 mg/kg/injection, schedule: Q01DX009 (ip), vehicle: gum acacia) was 99 % of control, the T/C (dose: 200.0 mg/kg/injection, schedule: Q01DX009 (ip), vehicle: gum acacia) was 92 % of control and the T/C (dose: 400.0 mg/kg/injection, schedule: Q01DX009 (ip), vehicle: gum acacia) was 92 % of control.
With `Oc1c(Cl)cc(Cl)c(Cl)c1CN1CCOCC1` the T/C (dose: 55.0 mg/kg/injection, schedule: Q01DX Z (ip), vehicle: methylcellulose (MC)) was 98 % of control, the T/C (dose: 83.0 mg/kg/injection, schedule: Q01DX Z (ip), vehicle: methylcellulose (MC)) was 116 % of control and the T/C (dose: 125.0 mg/kg/injection, schedule: Q01DX Z (ip), vehicle: methylcellulose (MC)) was 104 % of control.
For `N#CCCNc1cccc(Cl)c1`, the T/C [10] was 94 % of control, the T/C [11] was 109 % of control and the T/C [12] was 96 % of control.
With `O=C(OCC1OC(c2ccccc2)OC1C1OC(c2ccccc2)OC1COC(=O)c1ccccc1)c1ccccc1` (configuration not stated) the T/C [2] was 103 % of control, the T/C [4] was 110 % of control and the T/C [6] was 110 % of control.
With `CC1CCOP(=O)(Sc2ccccc2)O1` (configuration not stated) the T/C (dose: 75.0 mg/kg/injection, schedule: Q04DX002 (ip), vehicle: Klucel (hydroxypropylcellulose) (HPC)) was 102 % of control, the T/C [1] was 106 % of control and the T/C (dose: 150.0 mg/kg/injection, schedule: Q04DX002 (ip), vehicle: Klucel (hydroxypropylcellulose) (HPC)) was 113 % of control. The T/C (dose: 200.0 mg/kg/injection, schedule: Q04DX002 (ip), vehicle: Klucel (hydroxypropylcellulose) (HPC)) was 109 % of control.
With `CS(=O)(=O)OCCN(CCOS(C)(=O)=O)c1ccc([N+](=O)[O-])c(Cl)c1` the T/C (dose: 50.0 mg/kg/injection, schedule: Q01DX001 (ip), vehicle: saline) was 96 % of control, the T/C [2] was 96 % of control and the T/C [4] was 100 % of control. For the same molecule, the T/C [6] was 91 % of control.
With `Nc1ccn(CC(=O)N2CCOCC2)c(=O)n1` the T/C (dose: 25.0 mg/kg/injection, schedule: Q01DX009 (ip), vehicle: water) was 93 % of control, the T/C (dose: 50.0 mg/kg/injection, schedule: Q01DX009 (ip), vehicle: water) was 87 % of control and the T/C (dose: 100.0 mg/kg/injection, schedule: Q01DX009 (ip), vehicle: water) was 87 % of control. The T/C (dose: 200.0 mg/kg/injection, schedule: Q01DX009 (ip), vehicle: water) was 93 % of control and the T/C (dose: 400.0 mg/kg/injection, schedule: Q01DX009 (ip), vehicle: water) was 88 % of control.
With `[B-][N+]12CC[N+]([B-])(CC1)CC2` the T/C (dose: 0.06 mg/kg/injection, schedule: Q01DX009 (ip), vehicle: saline sonified) was 98 % of control, the T/C (dose: 0.06 mg/kg/injection, schedule: Q04DX003 (ip), vehicle: saline sonified) was 113 % of control and the T/C (dose: 0.13 mg/kg/injection, schedule: Q01DX009 (ip), vehicle: saline sonified) was 96 % of control. The T/C (dose: 0.13 mg/kg/injection, schedule: Q04DX003 (ip), vehicle: saline sonified) was 96 % of control, the T/C (dose: 0.25 mg/kg/injection, schedule: Q01DX009 (ip), vehicle: saline sonified) was 100 % of control and the T/C (dose: 0.25 mg/kg/injection, schedule: Q04DX003 (ip), vehicle: saline sonified) was 103 % of control.
With `Clc1ccc(NC2=NCCS2)cc1` the T/C [7] was 104 % of control, the T/C [8] was 100 % of control and the T/C [9] was 93 % of control.
With `CCN1N=Nc2cccc3cccc1c23` the T/C [3] was 99 % of control and the T/C [5] was 100 % of control.
With `Clc1cc(Cl)c(/C=C/c2c(Cl)cc(Cl)cc2Cl)c(Cl)c1` the T/C [10] was 98 % of control, the T/C [11] was 93 % of control and the T/C [12] was 95 % of control.
